Assay results from patent publication US20240409585A1, “MACROCYCLIC IMMUNOMODULATORS” (priority 2021, published 2024).
Numbered stars: 1 amine (or outer) side, 2 acyl side, 3 side chain; on linkers, the order of the positions; unused ones are H or OH. Bridge positions count the residues as written; N and C are the ends. Square brackets hold non-standard residues; d marks the D form. Peptide text beside a SMILES is read from it. * marks the point of attachment. ξ: configuration not given here. X18 = O=C(O)COCCc1ccc(-c2ccc(C[C@H](N[*:1])C(=O)[*:2])cc2)cc1; Tyr(3-NO2) = N[C@@H](Cc1ccc(O)c([N+](=O)[O-])c1)C(=O)O; Phe(4-COOH) = N[C@@H](Cc1ccc(C(=O)O)cc1)C(=O)O; Bip = N[C@@H](Cc1ccc(-c2ccccc2)cc1)C(=O)O; Phe(3-CN) = N#Cc1cccc(C[C@H](N)C(=O)O)c1; Phe(3-Cl) = N[C@@H](Cc1cccc(Cl)c1)C(=O)O; Phe(3-F) = N[C@@H](Cc1cccc(F)c1)C(=O)O; Phe(3-Me) = Cc1cccc(C[C@H](N)C(=O)O)c1; Val(3-OH) = CC(C)(O)[C@H](N)C(=O)O; 3Pal = N[C@@H](Cc1cccnc1)C(=O)O; 2Thi = N[C@@H](Cc1cccs1)C(=O)O; Cha = N[C@@H](CC1CCCCC1)C(=O)O; Cit = NC(=O)NCCC[C@H](N)C(=O)O; Ile(3ξ) = CCC(C)[C@H](N)C(=O)O; Thr(3ξ) = CC(O)[C@H](N)C(=O)O; ξCha = NC(CC1CCCCC1)C(=O)O; Carboxymethyl = O=C(O)C*; NMeA = CN[C@@H](C)C(=O)O; Nle = CCCC[C@H](N)C(=O)O; Pra = C#CC[C@H](N)C(=O)O; Dab = NCC[C@H](N)C(=O)O; Dap = NC[C@H](N)C(=O)O

The compounds below were run against T1, PE-labeled human PD-L1-Ig binding to Jurkat cell line over-expressing human PD-1 (Jurkat-PD-1) (Homo sapiens, UniProt Q15116) (assay: Jurkat-PD-1 Cell Binding High-Content Screening Assay (CBA): Method 1). Conditions: Jurkat-PD-1 cells, PE-labeled PD-L1-Ig; μM; read-out: CBA Method 1 μM.
T1 construct: expressed in transfected cells; host or cells: Jurkat
T1 sequence (Q15116 25-288): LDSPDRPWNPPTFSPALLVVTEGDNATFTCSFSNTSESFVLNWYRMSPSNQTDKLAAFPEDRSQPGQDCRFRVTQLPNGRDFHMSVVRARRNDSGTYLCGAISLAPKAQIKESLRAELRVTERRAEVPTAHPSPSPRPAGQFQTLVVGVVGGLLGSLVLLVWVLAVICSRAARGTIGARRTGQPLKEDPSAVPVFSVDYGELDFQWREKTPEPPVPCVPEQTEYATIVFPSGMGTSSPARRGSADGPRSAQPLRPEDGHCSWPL
For `CCC(C)[C@@H]1NC(=O)[C@H](Cc2ccc(-c3ccccc3)cc2)NC(=O)[C@H](C(C)C)NC(=O)[C@H](Cc2cccc(C)c2)NC(=O)[C@H](CC(=O)O)NC(=O)[C@H](Cc2ccc(OCC(=O)O)cc2)NC(=O)[C@H](C(C)O)NC(=O)CSC[C@@H](C(=O)N[C@@H](CO)C(=O)NCC(=O)N[C@H](CO)C(N)=O)NC(=O)[C@H](C(C)O)NC(=O)[C@H](C(C)C)NC(=O)C(CC2CCCCC2)NC(=O)[C@H](CCN)NC(=O)[C@@H](CC(C)C)NC(=O)[C@H](C)N(C)C1=O` (stereo partly drawn) [Example 5005] ({CH2CO}-[Thr(3ξ)]Y(Carboxymethyl)D[Phe(3-Me)]V[Bip][Ile(3ξ)][NMeA][dL][Dab][ξCha]V[Thr(3ξ)]CSG[dS]-NH2; thioether N-14), the IC50 was 0.02 µM.

Same assay, conditions: Jurkat-hPD-1 cells, PE-labeled PD-L1-Ig 20 nM final; read-out: Jurkat HPDL1 PD1 IC50 (uM) (Method 1)
`CCC(C)[C@@H]1NC(=O)[C@H](Cc2ccc(-c3ccccc3)cc2)NC(=O)[C@H](C(C)C)NC(=O)[C@H](Cc2c[nH]c3ccccc23)NC(=O)[C@H](CC(=O)O)NC(=O)[C@H](Cc2ccc(OCC(=O)O)cc2)NC(=O)[C@H](C(C)O)NC(=O)CSC[C@@H](C(=O)N[C@@H](CO)C(=O)O)NC(=O)[C@H](C(C)O)NC(=O)[C@H](C(C)C)NC(=O)[C@H](CC2CCCCC2)NC(=O)[C@H](CCN)NC(=O)[C@@H](CC(C)C)NC(=O)[C@H](C)N(C)C1=O` (stereo partly drawn) [Compound 2230] ({CH2CO}-[Thr(3ξ)]Y(Carboxymethyl)DWV[Bip][Ile(3ξ)][NMeA][dL][Dab][Cha]V[Thr(3ξ)]CS-OH; thioether N-14) was tested, and the IC50 was 0.03 µM.
`CC(C)C[C@@H]1NC(=O)[C@H](Cc2c[nH]c3ccccc23)NC(=O)[C@H](CC(=O)O)NC(=O)[C@H](Cc2ccc(O)cc2)NC(=O)[C@H](Cc2ccccc2)NC(=O)CSC[C@@H](C(=O)N[C@@H](C)C(N)=O)NC(=O)[C@H](CO)NC(=O)[C@H](C(C)C)NC(=O)[C@H](CC(C)C)NC(=O)[C@H](CC(N)=O)NC(=O)[C@@H](CCCCN)NC(=O)[C@H](C)N(C)C(=O)[C@H](C(C)C)NC(=O)[C@H](Cc2ccc(-c3ccccc3)cc2)NC1=O` [Compound 1793] ({CH2CO}-FYDWL[Bip]V[NMeA][dK]NLVSCA-NH2; thioether N-14) showed an IC50 of 0.15 µM.
In the case of `C#CC[C@H](NC(=O)CNC(=O)[C@@H]1CSCC(=O)N[C@@H]([C@@H](C)O)C(=O)N[C@@H](Cc2ccc(OCC(=O)O)cc2)C(=O)N[C@@H](CC(=O)O)C(=O)N[C@@H](Cc2cccc(C)c2)C(=O)N[C@@H](Cc2ccc(OCC(=O)O)cc2)C(=O)N[C@@H](Cc2ccc(-c3ccccc3)cc2)C(=O)N[C@@H](Cc2ccc(OCC(=O)O)cc2)C(=O)N(C)[C@@H](C)C(=O)N[C@H](CC(C)C)C(=O)N[C@@H](CCN)C(=O)N[C@@H](CC2CCCCC2)C(=O)N[C@@H](C(C)(C)O)C(=O)N[C@@H](CCC(=O)O)C(=O)N1)C(=O)O` [Compound 1938] ({CH2CO}-TY(Carboxymethyl)D[Phe(3-Me)]Y(Carboxymethyl)[Bip]Y(Carboxymethyl)[NMeA][dL][Dab][Cha][Val(3-OH)]ECG[Pra]-OH; thioether N-14), the IC50 is reported as 0.34 µM.
`CC(C)C[C@@H]1NC(=O)[C@H](CCCNC(=N)N)NC(=O)[C@@H](CC(C)C)NC(=O)[C@H](C)N(C)C(=O)[C@H](CCCNC(=N)N)NC(=O)[C@H](Cc2ccc(-c3ccccc3)cc2)NC(=O)[C@H](C(C)C)NC(=O)[C@H](Cc2cccc(F)c2)NC(=O)[C@H](CC(=O)O)NC(=O)[C@H](Cc2ccc(O)cc2)NC(=O)[C@H](CC(N)=O)NC(=O)CSC[C@@H](C(=O)N[C@@H](C)C(N)=O)NC(=O)[C@H]([C@@H](C)O)NC(=O)[C@H](C(C)C)NC1=O` [Compound 1199] ({CH2CO}-NYD[Phe(3-F)]V[Bip]R[NMeA][dL]RLVTCA-NH2; thioether N-14) was tested, and the IC50 was 0.45 µM.
Compound `CC(C)C[C@@H]1NC(=O)[C@H](CCCNC(=N)N)NC(=O)[C@@H](CC(C)C)NC(=O)[C@H](C)N(C)C(=O)[C@H](C(C)C)NC(=O)[C@H](Cc2ccc(-c3ccccc3)cc2)NC(=O)[C@H](C(C)C)NC(=O)[C@H](Cc2cccc(Cl)c2)NC(=O)[C@H](CC(=O)O)NC(=O)[C@H](Cc2ccc(O)cc2)NC(=O)[C@H](CC(N)=O)NC(=O)CSC[C@@H](C(=O)N[C@@H](C)C(N)=O)NC(=O)[C@H]([C@@H](C)O)NC(=O)[C@H](C(C)C)NC1=O` [Compound 1274] ({CH2CO}-NYD[Phe(3-Cl)]V[Bip]V[NMeA][dL]RLVTCA-NH2; thioether N-14) has an IC50 of 0.03 µM.
`CC(C)C[C@@H]1NC(=O)[C@H](CCN)NC(=O)[C@@H](CC(C)C)NC(=O)[C@H](C)N(C)C(=O)[C@H]([C@@H](C)O)NC(=O)[C@H](Cc2ccc(-c3ccccc3)cc2)NC(=O)[C@H](C(C)C)NC(=O)[C@H](Cc2c[nH]c3ccccc23)NC(=O)[C@H](CC(=O)O)NC(=O)[C@H](Cc2ccc(O)cc2)NC(=O)[C@H](CC(N)=O)NC(=O)CSC[C@@H](C(=O)N[C@@H](C)C(N)=O)NC(=O)[C@H]([C@@H](C)O)NC(=O)[C@H](C(C)C)NC1=O` [Compound 1300] ({CH2CO}-NYDWV[Bip]T[NMeA][dL][Dab]LVTCA-NH2; thioether N-14) showed an IC50 of 0.02 µM.
`CCC(C)[C@@H]1NC(=O)[C@H](Cc2ccc(-c3ccccc3)cc2)NC(=O)[C@H](C(C)C)NC(=O)[C@H](Cc2cccc(C)c2)NC(=O)[C@H](CC(=O)O)NC(=O)[C@H](Cc2ccc(OCC(=O)O)cc2)NC(=O)[C@H](C(C)O)NC(=O)CSC[C@@H](C(=O)N[C@@H](CO)C(=O)O)NC(=O)[C@H](C(C)O)NC(=O)[C@H](C(C)C)NC(=O)[C@H](CC2CCCCC2)NC(=O)[C@H](CCN)NC(=O)[C@@H](CC(C)C)NC(=O)[C@H](C)N(C)C1=O` (stereo partly drawn) [Compound 2232] ({CH2CO}-[Thr(3ξ)]Y(Carboxymethyl)D[Phe(3-Me)]V[Bip][Ile(3ξ)][NMeA][dL][Dab][Cha]V[Thr(3ξ)]CS-OH; thioether N-14) was tested, and the IC50 was 0.01 µM.
`CC(=O)NCC[C@H](NC(=O)[C@@H]1CSCC(=O)N[C@@H](Cc2cccs2)C(=O)N[C@@H](Cc2ccc(OCC(=O)O)cc2)C(=O)N[C@@H](CC(=O)O)C(=O)N[C@@H](Cc2cccc(C)c2)C(=O)N[C@@H](Cc2ccc(C(=O)O)cc2)C(=O)N[C@@H](Cc2ccc(-c3ccccc3)cc2)C(=O)N[C@@H](Cc2ccc(OCC(=O)O)cc2)C(=O)N(C)[C@@H](C)C(=O)N[C@H](CC(C)C)C(=O)N[C@@H](CCN)C(=O)N[C@@H](CC2CCCCC2)C(=O)N[C@@H](C(C)(C)O)C(=O)N[C@@H](Cc2cnc[nH]2)C(=O)N1)C(N)=O` [Compound 2163] ({CH2CO}-[2Thi]Y(Carboxymethyl)D[Phe(3-Me)][Phe(4-COOH)][Bip]Y(Carboxymethyl)[NMeA][dL][Dab][Cha][Val(3-OH)]HC[Dab](Ac)-NH2; thioether N-14) showed an IC50 of 0.01 µM.
Compound `CC(C)C[C@@H]1NC(=O)[C@H](CCN)NC(=O)[C@@H](CC(C)C)NC(=O)[C@H](C)N(C)C(=O)[C@H](C(C)C)NC(=O)[C@H](Cc2ccc(-c3ccccc3)cc2)NC(=O)[C@H](C(C)C)NC(=O)[C@H](Cc2c[nH]c3ccccc23)NC(=O)[C@H](CC(=O)O)NC(=O)[C@H](Cc2cccc(C#N)c2)NC(=O)[C@H](CN)NC(=O)CSC[C@@H](C(=O)N[C@@H](C)C(N)=O)NC(=O)[C@H]([C@@H](C)O)NC(=O)[C@H](C(C)C)NC1=O` [Compound 1436] ({CH2CO}-[Dap][Phe(3-CN)]DWV[Bip]V[NMeA][dL][Dab]LVTCA-NH2; thioether N-14) has an IC50 of 0.06 µM.
`CC(C)C[C@@H]1NC(=O)[C@H](CCN)NC(=O)[C@@H](CC(C)C)NC(=O)[C@H](C)N(C)C(=O)[C@H](CCCNC(=N)N)NC(=O)[C@H](Cc2ccc(-c3ccc(CCOCC(=O)O)cc3)cc2)NC(=O)[C@H](C(C)C)NC(=O)[C@H](Cc2c[nH]c3ccccc23)NC(=O)[C@H](CC(=O)O)NC(=O)[C@H](Cc2ccc(O)cc2)NC(=O)[C@H](CC(N)=O)NC(=O)CSC[C@@H](C(=O)N[C@@H](C)C(N)=O)NC(=O)[C@H]([C@@H](C)O)NC(=O)[C@H](C(C)C)NC1=O` [Compound 1210] ({CH2CO}-NYDWV[X18]R[NMeA][dL][Dab]LVTCA-NH2; thioether N-14) showed an IC50 of 0.88 µM.
Work on `CC(C)C[C@H]1NC(=O)[C@H](C)N(C)C(=O)[C@H](C(C)C)NC(=O)[C@H](Cc2ccc(-c3ccccc3)cc2)NC(=O)[C@H](C(C)C)NC(=O)[C@H](Cc2c[nH]c3ccccc23)NC(=O)[C@H](CC(=O)O)NC(=O)[C@H](Cc2ccc(O)cc2)NC(=O)[C@H](Cc2ccc(OCC(=O)O)cc2)NC(=O)CSC[C@@H](C(=O)N[C@@H](C)C(N)=O)NC(=O)[C@H]([C@@H](C)O)NC(=O)[C@H](C(C)C)NC(=O)[C@H](CC2CCCCC2)NC(=O)[C@H](CCCNC(=N)N)NC1=O` [Compound 1486] ({CH2CO}-Y(Carboxymethyl)YDWV[Bip]V[NMeA][dL]R[Cha]VTCA-NH2; thioether N-14) yielded an IC50 of 0.62 µM.
`CCCC[C@@H]1NC(=O)[C@H](CCCNC(=N)N)NC(=O)[C@@H](CC(C)C)NC(=O)[C@H](C)N(C)C(=O)[C@H](C(C)C)NC(=O)[C@H](Cc2ccc(-c3ccccc3)cc2)NC(=O)[C@H](C(C)C)NC(=O)[C@H](Cc2c[nH]c3ccccc23)NC(=O)[C@H](CC(=O)O)NC(=O)[C@H](Cc2ccc(O)cc2)NC(=O)[C@H](Cc2ccc(OCC(=O)O)cc2)NC(=O)CSC[C@@H](C(=O)N[C@@H](C)C(N)=O)NC(=O)[C@H]([C@@H](C)O)NC(=O)[C@H](C(C)C)NC1=O` [Compound 1501] ({CH2CO}-Y(Carboxymethyl)YDWV[Bip]V[NMeA][dL]R[Nle]VTCA-NH2; thioether N-14) gave an IC50 of 0.08 µM.
Compound `CC(C)C[C@@H]1NC(=O)[C@H](CCN)NC(=O)[C@@H](CC(C)C)NC(=O)[C@H](C)N(C)C(=O)[C@H](CCCNC(N)=O)NC(=O)[C@H](Cc2ccc(-c3ccccc3)cc2)NC(=O)[C@H](C(C)C)NC(=O)[C@H](Cc2c[nH]c3ccccc23)NC(=O)[C@H](CC(=O)O)NC(=O)[C@H](Cc2ccc(O)c([N+](=O)[O-])c2)NC(=O)[C@H](Cc2cccnc2)NC(=O)CSC[C@@H](C(=O)N[C@@H](C)C(N)=O)NC(=O)[C@H]([C@@H](C)O)NC(=O)[C@H](C(C)C)NC1=O` [Compound 1338] ({CH2CO}-[3Pal][Tyr(3-NO2)]DWV[Bip][Cit][NMeA][dL][Dab]LVTCA-NH2; thioether N-14) has an IC50 of 0.01 µM.
